Data from PubChem BioAssay AID1918940 (Molecular Pharmacology Branch, DTP, NCI, 2023).
Several values for one entry are separate records, joined by “and”; a condition that tells them apart may be missing. Identical values can stand only once.

Tested on: NCI-H211 complex spheroid viability
Assay: Anticancer human tumor NCI-H211 cell line growth inhibition [LSD1];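 also: luminescent viability read after seven days of drug exposure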;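 as to viability, T/C: 100% = DMSO vehicle control viability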
Details: for viability, T/C: stronger effect = lower value
Method in brief: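 Multicellular complex spheroids of tumor cells with human endothelial cells (HUVEC) and mesenchymal stem cells; the LSD1 inhibitor iadademstat was combined with standard-of-care or investigational agents. Top concentration at or near clinical Cmax, half-log dilutions; final DMSO ≤0.25%.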

[1] = curve of first compound, second compound 0.1 µM
[2] = curve of first compound, second compound 0.316 µM
[3] = curve of first compound, second compound 1 µM
[4] = curve of first compound, second compound 3.16 µM
[5] = curve of first compound, second compound 10 µM
[6] = second compound 0.1 µM, first compound 0.0316 µM
[7] = second compound 0.1 µM, first compound 0.1 µM
[8] = second compound 0.316 µM, first compound 0.0316 µM
[9] = second compound 0.316 µM, first compound 0.1 µM
[10] = second compound 1 µM, first compound 0.0316 µM
[11] = second compound 1 µM, first compound 0.1 µM
[12] = second compound 3.16 µM, first compound 0.0316 µM
[13] = second compound 3.16 µM, first compound 0.1 µM
[14] = second compound 10 µM, first compound 0.0316 µM
[15] = second compound 10 µM, first compound 0.1 µM
[16] = second compound 0.1 µM, first compound 0.00949 µM
[17] = second compound 0.1 µM, first compound 0.03 µM
[18] = second compound 0.1 µM, first compound 0.0949 µM
[19] = second compound 0.1 µM, first compound 0.3 µM
[20] = second compound 0.316 µM, first compound 0.00949 µM
[21] = second compound 0.316 µM, first compound 0.03 µM
[22] = second compound 0.316 µM, first compound 0.0949 µM
[23] = second compound 0.316 µM, first compound 0.3 µM
[24] = second compound 1 µM, first compound 0.00949 µM
[25] = second compound 1 µM, first compound 0.03 µM
[26] = second compound 1 µM, first compound 0.0949 µM
[27] = second compound 1 µM, first compound 0.3 µM
[28] = second compound 3.16 µM, first compound 0.00949 µM
[29] = second compound 3.16 µM, first compound 0.03 µM
[30] = second compound 3.16 µM, first compound 0.0949 µM
[31] = second compound 3.16 µM, first compound 0.3 µM
[32] = second compound 10 µM, first compound 0.00949 µM
[33] = second compound 10 µM, first compound 0.03 µM
[34] = second compound 10 µM, first compound 0.0949 µM
[35] = second compound 10 µM, first compound 0.3 µM

COc1ccc([C@@H](O)c2cc(-c3ncnc4cc(N5CCOCC5)ccc34)c(F)cc2Cl)nn1 + NC1CC1c1ccc(-c2cccc(O)c2)cc1
IC50 [1]: 4470 nM
IC50 [2]: 4050 nM
IC50 [3]: 3570 nM
IC50 [4]: 2490 nM
IC50 [5]: < 31.6 nM
viability, T/C [6]: 62%
viability, T/C [7]: 63.6%
viability, T/C (second compound 0.1 µM, first compound 0.316 µM): 75%
viability, T/C (second compound 0.1 µM, first compound 1 µM): 89.8%
viability, T/C (second compound 0.1 µM, first compound 3.16 µM): 65.8%
viability, T/C (second compound 0.1 µM, first compound 10 µM): 13.6%
viability, T/C [8]: 59.7%
viability, T/C [9]: 52.7%
viability, T/C (second compound 0.316 µM, first compound 0.316 µM): 62.2%
viability, T/C (second compound 0.316 µM, first compound 1 µM): 73.5%
viability, T/C (second compound 0.316 µM, first compound 3.16 µM): 59.9%
viability, T/C (second compound 0.316 µM, first compound 10 µM): 12.2%
viability, T/C [10]: 67.3%
viability, T/C [11]: 67%
viability, T/C (second compound 1 µM, first compound 0.316 µM): 72.2%
viability, T/C (second compound 1 µM, first compound 1 µM): 76.8%
viability, T/C (second compound 1 µM, first compound 3.16 µM): 54.8%
viability, T/C (second compound 1 µM, first compound 10 µM): 9.71%
viability, T/C [12]: 54.5%
viability, T/C [13]: 53.1%
viability, T/C (second compound 3.16 µM, first compound 0.316 µM): 59%
viability, T/C (second compound 3.16 µM, first compound 1 µM): 60.4%
viability, T/C (second compound 3.16 µM, first compound 3.16 µM): 48.2%
viability, T/C (second compound 3.16 µM, first compound 10 µM): 8.23%
viability, T/C [14]: 51.2%
viability, T/C [15]: 38.8%
viability, T/C (second compound 10 µM, first compound 0.316 µM): 51.6%
viability, T/C (second compound 10 µM, first compound 1 µM): 48%
viability, T/C (second compound 10 µM, first compound 3.16 µM): 36.7%
viability, T/C (second compound 10 µM, first compound 10 µM): 3.23%

CC1(C)CCC(CN2CCN(c3ccc(C(=O)NS(=O)(=O)c4ccc(NCC5CCOCC5)c([N+](=O)[O-])c4)c(Oc4cnc5[nH]ccc5c4)c3)CC2)=C(c2ccc(Cl)cc2)C1
viability, T/C (compound 0.0316 µM): 95.3% and 36.1%
viability, T/C (compound 0.1 µM): 98.2% and 43.8%
viability, T/C (compound 0.316 µM): 98.3% and 47.9%
viability, T/C (compound 1 µM): 124% and 72.7%
viability, T/C (compound 3.16 µM): 118% and 99.6%
viability, T/C (compound 10 µM): 32.2% and 60.1%

COc1cc(C2c3cc4c(cc3C(OC3OC5COC(C)OC5C(O)C3O)C3COC(=O)C23)OCO4)cc(OC)c1O (stereo not drawn) + NC1CC1c1ccc(-c2cccc(O)c2)cc1
IC50 [1]: < 9.49 nM
IC50 [2]: < 9.49 nM
IC50 [3]: < 9.49 nM
IC50 [4]: < 9.49 nM
IC50 [5]: < 9.49 nM
viability, T/C [16]: 43.9%
viability, T/C [17]: 11.5%
viability, T/C [18]: 4.34%
viability, T/C [19]: 5.07%
viability, T/C (second compound 0.1 µM, first compound 0.949 µM): 5.27%
viability, T/C (second compound 0.1 µM, first compound 3 µM): 4.24%
viability, T/C [20]: 38.7%
viability, T/C [21]: 11.5%
viability, T/C [22]: 4.54%
viability, T/C [23]: 4.97%
viability, T/C (second compound 0.316 µM, first compound 0.949 µM): 4.77%
viability, T/C (second compound 0.316 µM, first compound 3 µM): 4.76%
viability, T/C [24]: 35.6%
viability, T/C [25]: 10.3%
viability, T/C [26]: 6.12%
viability, T/C [27]: 4.33%
viability, T/C (second compound 1 µM, first compound 0.949 µM): 3.45%
viability, T/C (second compound 1 µM, first compound 3 µM): 4.65%
viability, T/C [28]: 29.2%
viability, T/C [29]: 7.68%
viability, T/C [30]: 5.57%
viability, T/C [31]: 5.22%
viability, T/C (second compound 3.16 µM, first compound 0.949 µM): 5.76%
viability, T/C (second compound 3.16 µM, first compound 3 µM): 3.92%
viability, T/C [32]: 24.8%
viability, T/C [33]: 9.09%
viability, T/C [34]: 5.19%
viability, T/C [35]: 4.7%
viability, T/C (second compound 10 µM, first compound 0.949 µM): 5%
viability, T/C (second compound 10 µM, first compound 3 µM): 4.52%

CC[C@@]1(O)C(=O)OCc2c1cc1n(c2=O)Cc2cc3c(CN(C)C)c(O)ccc3nc2-1 + NC1CCC(NC2CC2c2ccccc2)CC1
IC50 [1]: 0.337 nM
IC50 [2]: 0.355 nM
IC50 [3]: 0.329 nM
IC50 [4]: < 0.316 nM
IC50 [5]: < 0.316 nM
viability, T/C (second compound 0.1 µM, first compound 0.000316 µM): 52.3%
viability, T/C (second compound 0.1 µM, first compound 0.001 µM): 11.6%
viability, T/C (second compound 0.1 µM, first compound 0.00316 µM): 2.63%
viability, T/C (second compound 0.1 µM, first compound 0.01 µM): 7.01%
viability, T/C [6]: 1.98%
viability, T/C [7]: 1.11%
viability, T/C (second compound 0.316 µM, first compound 0.000316 µM): 54.4%
viability, T/C (second compound 0.316 µM, first compound 0.001 µM): 11.1%
viability, T/C (second compound 0.316 µM, first compound 0.00316 µM): 1.88%
viability, T/C (second compound 0.316 µM, first compound 0.01 µM): 2.29%
viability, T/C [8]: 2.33%
viability, T/C [9]: 1.04%
viability, T/C (second compound 1 µM, first compound 0.000316 µM): 51.4%
viability, T/C (second compound 1 µM, first compound 0.001 µM): 10.3%
viability, T/C (second compound 1 µM, first compound 0.00316 µM): 3.14%
viability, T/C (second compound 1 µM, first compound 0.01 µM): 2.71%
viability, T/C [10]: 7%
viability, T/C [11]: 1.06%
viability, T/C (second compound 3.16 µM, first compound 0.000316 µM): 49%
viability, T/C (second compound 3.16 µM, first compound 0.001 µM): 9.4%
viability, T/C (second compound 3.16 µM, first compound 0.00316 µM): 2.42%
viability, T/C (second compound 3.16 µM, first compound 0.01 µM): 1.93%
viability, T/C [12]: 1.88%
viability, T/C [13]: 1.01%
viability, T/C (second compound 10 µM, first compound 0.000316 µM): 28.7%
viability, T/C (second compound 10 µM, first compound 0.001 µM): 6.59%
viability, T/C (second compound 10 µM, first compound 0.00316 µM): 1.13%
viability, T/C (second compound 10 µM, first compound 0.01 µM): 1.34%
viability, T/C [14]: 0.81%
viability, T/C [15]: 0.51%

CCc1c2c(nc3ccc(O)cc13)-c1cc3c(c(=O)n1C2)COC(=O)[C@]3(O)CC + NC1CCC(NC2CC2c2ccccc2)CC1
IC50 [1]: < 0.949 nM
IC50 [2]: < 0.949 nM
IC50 [3]: < 0.949 nM
IC50 [4]: < 0.949 nM
IC50 [5]: < 0.949 nM
viability, T/C (second compound 0.1 µM, first compound 0.000949 µM): 1.98%
viability, T/C (second compound 0.1 µM, first compound 0.003 µM): 3.23%
viability, T/C [16]: 0.6%
viability, T/C [17]: 0.92%
viability, T/C [18]: 0.04%
viability, T/C [19]: 0.14%
viability, T/C (second compound 0.316 µM, first compound 0.000949 µM): 1.86%
viability, T/C (second compound 0.316 µM, first compound 0.003 µM): 0.71%
viability, T/C [20]: 0.57%
viability, T/C [21]: 0.69%
viability, T/C [22]: 0.03%
viability, T/C [23]: 0.27%
viability, T/C (second compound 1 µM, first compound 0.000949 µM): 2.45%
viability, T/C (second compound 1 µM, first compound 0.003 µM): 1.08%
viability, T/C [24]: 0.51%
viability, T/C [25]: 0.73%
viability, T/C [26]: 0.06%
viability, T/C [27]: 0.61%
viability, T/C (second compound 3.16 µM, first compound 0.000949 µM): 0.94%
viability, T/C (second compound 3.16 µM, first compound 0.003 µM): 0.56%
viability, T/C [28]: 0.41%
viability, T/C [29]: 0.58%
viability, T/C [30]: 0.5%
viability, T/C [31]: 0.13%
viability, T/C (second compound 10 µM, first compound 0.000949 µM): 0.65%
viability, T/C (second compound 10 µM, first compound 0.003 µM): 0.19%
viability, T/C [32]: 0.2%
viability, T/C [33]: 0.27%
viability, T/C [34]: 0.13%
viability, T/C [35]: 0.19%

Nc1ncn(C2CC(O)C(CO)S2)c(=O)n1 (stereo not drawn)
viability, T/C (compound 0.000949 µM): 74.8% and 46.6%
viability, T/C (compound 0.003 µM): 33.3% and 23.1%
viability, T/C (compound 0.00949 µM): 9.28% and 10.7%
viability, T/C (compound 0.03 µM): 3.02% and 5.29%
viability, T/C (compound 0.0949 µM): 1.96% and 4.56%
viability, T/C (compound 0.3 µM): 2.36% and 4.76%
IC50 (curve of compound): 1.89 nM and < 0.949 nM
